What all share (assay type): cell-based
The test system of assay [1] is EGFR Del19/T790M/C797S (BaF3-DTC cells). The assay can be described thus: EGFR degradation HTRF assay, BaF3-DTC cells. To be noted: 16h treatment; for DTC Dmax (%): maximum percentage of degradation; for DC50: read-out: DTC DC50. The essentials:
(§1)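 Cells treated 16 h at 37 °C, 5% CO2 in medium with 0.2% DMSO; top final concentration 10 uM, 5-fold dilution, 8 doses. Lysates read by HTRF (665/620 nm); degradation % versus DMSO high control, DC50 from four-parameter fit, Dmax as maximal degradation.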

The target in assay [2] is T1, EGFR WT (BaF3 WT cells) (Homo sapiens, UniProt P00533).
T1 construct: expressed in transfected cells; host or cells: BaF3
The assay can be described thus: EGFR degradation HTRF assay, BaF3 WT cells. Particulars: BaF3 WT, 16h treatment; for Dmax: maximum percentage of degradation, read-out: WT Dmax (%). The protocol:
BaF3 WT(wild type), BaF3-LTC(L858R/T790M/C797S) and BaF3-DTC(Del19/T790M/C797S) cells are treated with compounds diluted in 0.2% DMSO cell culture medium and incubate for 16h, 37° C., 5% CO2, H1975-#36, H1975-#28, H1975-#23 and HCC827 cells are treated with compounds diluted in 0.2% DMSO cell culture medium on day 2, incubate for 16h, 37° C., 5% CO2.the final concentriation of compounds in all assay is start with 10 uM, 5-fold dilution, total 8 doses were included.
After 16h treatment, add HTRF lysis buffer to each well; seal the plate and incubate 1 hour at room temperature on a plate shaker; Once the cells are lysed, 16 μL of cell lysate are transferred to a PE 384-well HTRF detection plate; 4 μL of pre-mixed HTRF antibodies are added to each well; Cover the plate with a plate sealer, spin 1000 rpm for 1 min, Incubate overnight at room temperature; Read on BMG PheraStar with HTRF protocol (337 nm-665 nm-620 nm).
The inhibition (degradation) percentage of the compound was calculated by the following equation: Inhibition percentage of Compound=100-100×(Signal-low control)/(High control-low control), wherein signal=each test compound group
High control=Cell group with added DMSO and without compound, indicating microplate readings without EGFR degradation;
Dmax is the maximum percentage of inhibition (degradation).
The IC50 (DC50) value of a compound can be obtained by fitting the following equation
Y=Bottom+(TOP−Bottom)/(1+((IC50/X)^hillslope))
Wherein, X and Y are known values, and IC50, Hillslope, Top and Bottom are the parameters obtained by fitting with software. Y is the inhibition percentage (calculated from the equation), X is the concentration of the compound; IC50 is the concentration of the compound when the 50% inhibition is reached. The smaller the IC50 value is, the stronger the inhibitory ability of the compound is. Vice versa, the higher the IC50 value is, the weaker the inhibitory ability of the compound is; Hillslope represents the slope of the fitted curve, generally around 1*; Bottom represents the minimum value of the curve obtained by data fitting, which is generally 0%±20%; Top represents the maximum value of the curve obtained by data fitting, which is generally 100%±20%. The experimental data were fitted by calculating and analyzing with Dotmatics data analysis software.
In general terms: TR-FRET usually uses a lanthanide donor and a delayed reading to cut background.

Assay [3] has as its target T2, EGFR L858R/T790M (H1975-clone #36, homozygous) (Homo sapiens, UniProt P00533, L858R/T790M).
T2 construct: designed to specifically target WT EGFR but preserve the L858R/T790M copy; host or cells: H1975-clone #36
The assay is described as follows: EGFR degradation HTRF assay, H1975-clone #36 cells. To be noted: H1975 #36, 16h treatment; for Dmax: NCI-H1975, maximum percentage of degradation. The gist of the method:
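H1975 clone #36, made homozygous for L858R/T790M EGFR by knockout of the WT allele, treated 16 h at 37 °C with compound in 0.2% DMSO medium. Eight doses from 10 uM, 5-fold dilutions. EGFR measured by HTRF in lysates. DC50 and Dmax fitted against DMSO controls.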

Assay [4] addresses T3, EGFR L858R/T790M/C797S (BaF3-LTC cells) (Homo sapiens, UniProt P00533, C797S/L858R/T790M).
T3 construct: expressed in transfected cells; host or cells: BaF3
The assay is described as follows: EGFR degradation HTRF assay, BaF3-LTC cells. Particulars: BaF3-LTC, 16h treatment; for Dmax: maximum percentage of degradation, read-out: LTC Dmax (%); for DC50: read-out: LTC DC50. The gist of the method:
as §1

The target of assay [5] is T4, EGFR (HCC827 cells) (Homo sapiens, UniProt P00533, DEL746-750).
T4 construct: endogenous in cells; host or cells: HCC827
The assay can be described thus: EGFR degradation HTRF assay, HCC827 cells. To be noted: HCC827, 16h treatment; for Dmax: maximum percentage of degradation. The essentials:
as §1

Bounds are passed on as bounds.

T1 sequence (P00533 25-1210): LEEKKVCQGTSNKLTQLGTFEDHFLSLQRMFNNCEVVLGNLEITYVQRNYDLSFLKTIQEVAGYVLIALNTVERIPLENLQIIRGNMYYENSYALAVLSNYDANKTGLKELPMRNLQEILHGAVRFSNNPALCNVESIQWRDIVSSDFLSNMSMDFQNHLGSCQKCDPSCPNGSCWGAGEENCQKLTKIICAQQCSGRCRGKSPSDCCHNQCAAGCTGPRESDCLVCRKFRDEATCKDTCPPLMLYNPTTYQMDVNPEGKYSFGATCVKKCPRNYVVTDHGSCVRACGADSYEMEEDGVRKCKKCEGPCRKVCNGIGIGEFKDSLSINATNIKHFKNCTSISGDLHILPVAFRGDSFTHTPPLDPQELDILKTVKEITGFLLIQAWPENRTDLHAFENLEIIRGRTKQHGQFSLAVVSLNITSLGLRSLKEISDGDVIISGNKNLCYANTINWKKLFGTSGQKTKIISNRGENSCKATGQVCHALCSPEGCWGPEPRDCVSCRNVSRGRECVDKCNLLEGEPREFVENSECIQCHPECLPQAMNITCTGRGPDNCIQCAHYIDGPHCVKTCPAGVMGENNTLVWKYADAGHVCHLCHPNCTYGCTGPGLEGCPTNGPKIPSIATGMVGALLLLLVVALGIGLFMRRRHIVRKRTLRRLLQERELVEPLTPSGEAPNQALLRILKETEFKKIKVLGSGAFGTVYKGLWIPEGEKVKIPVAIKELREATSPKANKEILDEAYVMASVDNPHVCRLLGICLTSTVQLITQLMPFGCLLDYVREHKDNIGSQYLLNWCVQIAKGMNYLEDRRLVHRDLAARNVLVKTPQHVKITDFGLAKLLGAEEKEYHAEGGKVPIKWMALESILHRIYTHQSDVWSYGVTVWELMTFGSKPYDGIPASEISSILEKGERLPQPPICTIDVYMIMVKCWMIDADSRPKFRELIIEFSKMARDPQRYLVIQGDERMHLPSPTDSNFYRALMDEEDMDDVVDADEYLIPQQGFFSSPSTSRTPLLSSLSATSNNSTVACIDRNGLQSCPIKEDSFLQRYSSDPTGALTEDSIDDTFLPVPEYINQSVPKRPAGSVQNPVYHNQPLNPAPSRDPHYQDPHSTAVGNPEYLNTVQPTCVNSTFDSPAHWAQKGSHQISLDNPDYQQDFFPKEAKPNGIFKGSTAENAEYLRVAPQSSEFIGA
T3 sequence (P00533 25-1210 T790M/C797S/L858R): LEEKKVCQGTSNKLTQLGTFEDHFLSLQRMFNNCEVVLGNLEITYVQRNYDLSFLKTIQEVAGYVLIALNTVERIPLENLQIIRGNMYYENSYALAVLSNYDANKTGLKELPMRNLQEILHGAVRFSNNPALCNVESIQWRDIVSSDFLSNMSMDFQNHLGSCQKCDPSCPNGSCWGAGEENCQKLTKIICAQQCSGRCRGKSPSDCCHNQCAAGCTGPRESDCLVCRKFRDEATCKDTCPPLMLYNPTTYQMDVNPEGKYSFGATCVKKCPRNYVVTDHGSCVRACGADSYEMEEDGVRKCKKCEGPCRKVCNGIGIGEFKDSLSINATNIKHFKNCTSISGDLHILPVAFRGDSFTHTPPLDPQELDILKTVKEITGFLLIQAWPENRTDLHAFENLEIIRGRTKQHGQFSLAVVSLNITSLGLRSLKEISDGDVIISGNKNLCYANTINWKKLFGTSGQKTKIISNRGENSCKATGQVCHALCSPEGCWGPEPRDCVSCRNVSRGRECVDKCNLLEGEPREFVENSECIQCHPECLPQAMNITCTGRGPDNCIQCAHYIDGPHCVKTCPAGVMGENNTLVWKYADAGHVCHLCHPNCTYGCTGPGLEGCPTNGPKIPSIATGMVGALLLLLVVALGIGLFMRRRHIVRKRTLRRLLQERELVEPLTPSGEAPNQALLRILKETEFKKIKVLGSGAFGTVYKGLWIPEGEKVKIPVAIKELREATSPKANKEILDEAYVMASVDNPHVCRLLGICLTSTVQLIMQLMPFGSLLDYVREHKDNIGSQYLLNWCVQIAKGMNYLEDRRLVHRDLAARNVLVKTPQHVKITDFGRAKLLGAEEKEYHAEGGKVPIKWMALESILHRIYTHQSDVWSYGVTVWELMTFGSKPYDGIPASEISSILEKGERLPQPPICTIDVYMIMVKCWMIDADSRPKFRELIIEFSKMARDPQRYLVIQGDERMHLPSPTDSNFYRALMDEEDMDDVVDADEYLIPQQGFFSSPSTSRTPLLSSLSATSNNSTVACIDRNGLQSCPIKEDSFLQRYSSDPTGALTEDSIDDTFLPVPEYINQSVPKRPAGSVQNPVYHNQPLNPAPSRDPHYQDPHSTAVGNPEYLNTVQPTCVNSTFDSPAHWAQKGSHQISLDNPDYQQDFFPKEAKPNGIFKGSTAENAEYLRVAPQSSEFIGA
T2 sequence (P00533 25-1210 T790M/L858R): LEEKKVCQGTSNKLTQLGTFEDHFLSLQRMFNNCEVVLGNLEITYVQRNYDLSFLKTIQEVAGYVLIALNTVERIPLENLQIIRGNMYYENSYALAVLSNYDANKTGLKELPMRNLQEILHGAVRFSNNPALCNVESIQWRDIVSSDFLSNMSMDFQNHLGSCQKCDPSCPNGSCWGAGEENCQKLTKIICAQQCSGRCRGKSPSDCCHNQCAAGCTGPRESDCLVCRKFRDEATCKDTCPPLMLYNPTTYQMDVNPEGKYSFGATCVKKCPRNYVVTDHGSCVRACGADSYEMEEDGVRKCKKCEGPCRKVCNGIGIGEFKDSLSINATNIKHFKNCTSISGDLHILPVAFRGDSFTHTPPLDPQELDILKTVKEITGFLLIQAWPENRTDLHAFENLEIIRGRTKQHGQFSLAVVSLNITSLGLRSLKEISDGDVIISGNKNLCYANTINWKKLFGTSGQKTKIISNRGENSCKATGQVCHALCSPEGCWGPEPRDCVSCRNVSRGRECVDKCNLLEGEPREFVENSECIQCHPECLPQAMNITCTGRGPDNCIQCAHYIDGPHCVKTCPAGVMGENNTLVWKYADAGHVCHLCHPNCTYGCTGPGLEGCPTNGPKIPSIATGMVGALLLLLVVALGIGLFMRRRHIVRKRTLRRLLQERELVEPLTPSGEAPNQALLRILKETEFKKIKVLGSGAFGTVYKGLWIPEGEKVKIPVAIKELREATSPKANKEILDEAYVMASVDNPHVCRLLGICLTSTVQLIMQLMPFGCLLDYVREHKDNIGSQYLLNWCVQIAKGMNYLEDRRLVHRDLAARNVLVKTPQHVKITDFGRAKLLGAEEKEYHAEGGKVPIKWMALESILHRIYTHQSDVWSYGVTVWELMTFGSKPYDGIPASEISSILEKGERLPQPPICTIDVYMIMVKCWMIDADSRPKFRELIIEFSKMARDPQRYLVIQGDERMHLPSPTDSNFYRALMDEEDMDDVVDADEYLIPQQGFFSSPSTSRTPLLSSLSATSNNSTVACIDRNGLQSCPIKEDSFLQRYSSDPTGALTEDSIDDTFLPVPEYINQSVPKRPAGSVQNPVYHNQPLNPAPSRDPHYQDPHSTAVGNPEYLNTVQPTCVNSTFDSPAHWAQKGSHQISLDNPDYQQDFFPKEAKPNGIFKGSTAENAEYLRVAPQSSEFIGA
T4 sequence (P00533 with tags, fused parts or gaps DEL746-750): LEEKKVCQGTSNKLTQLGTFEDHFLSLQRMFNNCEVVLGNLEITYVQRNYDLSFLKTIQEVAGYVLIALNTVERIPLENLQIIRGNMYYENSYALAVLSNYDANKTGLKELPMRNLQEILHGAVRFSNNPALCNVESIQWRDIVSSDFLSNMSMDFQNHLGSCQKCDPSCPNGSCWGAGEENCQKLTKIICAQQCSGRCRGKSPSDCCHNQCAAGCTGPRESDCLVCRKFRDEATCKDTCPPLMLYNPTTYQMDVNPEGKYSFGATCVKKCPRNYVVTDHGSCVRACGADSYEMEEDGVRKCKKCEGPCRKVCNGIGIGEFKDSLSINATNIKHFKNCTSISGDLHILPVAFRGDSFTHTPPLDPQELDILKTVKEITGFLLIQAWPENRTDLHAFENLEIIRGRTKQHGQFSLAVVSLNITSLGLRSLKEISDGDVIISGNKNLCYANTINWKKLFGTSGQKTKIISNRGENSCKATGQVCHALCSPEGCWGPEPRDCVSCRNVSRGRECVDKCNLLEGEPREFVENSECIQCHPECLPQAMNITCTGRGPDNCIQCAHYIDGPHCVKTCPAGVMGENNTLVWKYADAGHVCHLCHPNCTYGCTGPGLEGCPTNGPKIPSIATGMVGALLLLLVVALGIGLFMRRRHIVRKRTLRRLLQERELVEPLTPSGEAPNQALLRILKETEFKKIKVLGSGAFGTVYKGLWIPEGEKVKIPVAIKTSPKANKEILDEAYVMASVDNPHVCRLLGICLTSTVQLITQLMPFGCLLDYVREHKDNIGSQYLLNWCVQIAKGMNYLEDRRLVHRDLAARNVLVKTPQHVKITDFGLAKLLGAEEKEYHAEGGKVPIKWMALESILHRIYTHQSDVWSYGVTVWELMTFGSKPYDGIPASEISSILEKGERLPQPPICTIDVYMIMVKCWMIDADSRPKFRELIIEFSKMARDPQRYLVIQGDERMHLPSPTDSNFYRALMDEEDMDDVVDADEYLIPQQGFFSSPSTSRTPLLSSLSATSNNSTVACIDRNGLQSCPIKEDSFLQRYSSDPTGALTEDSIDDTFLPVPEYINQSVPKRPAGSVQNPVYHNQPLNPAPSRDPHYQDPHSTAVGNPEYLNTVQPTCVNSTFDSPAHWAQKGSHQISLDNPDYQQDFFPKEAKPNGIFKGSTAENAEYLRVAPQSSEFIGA

Usually DC50 stands for the midpoint of the concentration-degradation curve. Broadly, the Dmax is the largest share of the target that was removed. As to `CCc1cc(Nc2ncc(Br)c(Nc3ccc4nccnc4c3P(C)(C)=O)n2)c(OC)cc1N1CCC(N2CCN(CCCC3CN(c4ccc5c(c4)C(=O)N(C4CCC(=O)NC4=O)C5=O)C3)CC2)CC1` (stereo not shown) [Example 56, 5-(3-(3-(4-(1-(4-((5-bromo-4-((5-(dimethylphosphoryl)quinoxalin-6-yl)amino)pyrimidin-2-yl)amino)-2-ethyl-5-methoxyphenyl)piperidin-4-yl)piperazin-1-yl)propyl)azetidin-1-yl)-2-(2,6-dioxopiperidin-3-yl)isoindoline-1,3-dione], in assay [1], the “DTC Dmax (%)” value amounted to 82.17%. Also, the DC50 in assay [1] is 9.52 nM; in assay [2] it was > 10000 nM; in assay [3], 6.5 nM; in assay [4], 31.4 nM; in assay [5], 2.63 nM. For the same compound, the Dmax in assay [2] came out at 16.9%; in assay [3], 88.8%; in assay [4], 79.5%; in assay [5], 93.4%.

Regarding `CCc1cc(Nc2ncc(Br)c(Nc3ccc4nccnc4c3P(C)(C)=O)n2)c(OC)cc1N1CCC(N2CCN(CCCN3CCN(c4ccc5c(c4)C(=O)N(C4CCC(=O)NC4=O)C5=O)CC3)CC2)CC1` (stereo not shown) [Example 60, 5-(4-(3-(4-(1-(4-((5-bromo-4-((5-(dimethylphosphoryl)quinoxalin-6-yl)amino)pyrimidin-2-yl)amino)-2-ethyl-5-methoxyphenyl)piperidin-4-yl)piperazin-1-yl)propyl)piperazin-1-yl)-2-(2,6-dioxopiperidin-3-yl)isoindoline-1,3-dione], in assay [1], the “DTC Dmax (%)” value came to 94.93%. Besides, the DC50 in assay [1] worked out at 42.2 nM; in assay [2], 8860 nM; in assay [3], 16.5 nM; in assay [4] it was 89 nM; in assay [5] it was 4.8 nM. Further, the Dmax turned out to be 51.6% in assay [2], 73.4% in assay [3], 91.2% in assay [4] and 86.8% in assay [5].

For `CCc1cc(Nc2ncc(Br)c(Nc3ccc4nccnc4c3P(C)(C)=O)n2)c(OC)cc1N1CCC(N2CCN(C(=O)CCN3CCN(c4ccc5c(c4)C(=O)N(C4CCC(=O)NC4=O)C5=O)CC3)CC2)CC1` (stereo not shown) [Example 61, 5-(4-(3-(4-(1-(4-((5-bromo-4-((5-(dimethylphosphoryl)quinoxalin-6-yl)amino)pyrimidin-2-yl)amino)-2-ethyl-5-methoxyphenyl)piperidin-4-yl)piperazin-1-yl)-3-oxopropyl)piperazin-1-yl)-2-(2,6-dioxopiperidin-3-yl)isoindoline-1,3-dione], the “DTC Dmax (%)” value in assay [1] was determined as 96.02%. Further, the DC50 is 6.05 nM in assay [1]; > 10000 nM in assay [2]; 9.34 nM in assay [3]; 20.1 nM in assay [4]; 2.84 nM in assay [5]. Moreover, the Dmax in assay [2] is 22.2%; in assay [3], 77.2%; in assay [4], 90.4%; in assay [5] it was 90%.

`CCc1cc(Nc2ncc(Br)c(Nc3ccc4nccnc4c3P(C)(C)=O)n2)c(OC)cc1N1CCC(N2CCN(C(=O)[C@@H]3CCN(c4ccc5c(c4)C(=O)N(C4CCC(=O)NC4=O)C5=O)C3)CC2)CC1` (stereo partly drawn) [Example 65, 5-((R)-3-(4-(1-(4-((5-bromo-4-((5-(dimethylphosphoryl)quinoxalin-6-yl)amino)pyrimidin-2-yl)amino)-2-ethyl-5-methoxyphenyl)piperidin-4-yl)piperazine-1-carbonyl)pyrrolidin-1-yl)-2-(2,6-dioxopiperidin-3-yl)isoindoline-1,3-dione]: the “DTC Dmax (%)” value in assay [1] stood at 80.45%. Besides, the DC50 in assay [1] was 8.05 nM; in assay [2], > 10000 nM; in assay [3], 2.31 nM; in assay [4] it was 14.2 nM; in assay [5], 2.53 nM. The maximal degradation (Dmax) came to 15.4% in assay [2], 85.6% in assay [3], 75.5% in assay [4] and 73.9% in assay [5].

For the compound `COc1cc(N2CCC(N3CCN(C(=O)C4CCN(CC5CCN(c6ccc7c(c6)C(=O)N(C6CCC(=O)NC6=O)C7=O)CC5)CC4)CC3)CC2)ccc1Nc1ncc(Cl)c(Nc2ccccc2P(C)(C)=O)n1` (stereo not shown) [Example 113, 5-(4-((4-(4-(1-(4-((5-chloro-4-((2-(dimethylphosphoryl)phenyl)amino)pyrimidin-2-yl)amino)-3-methoxyphenyl)piperidin-4-yl)piperazine-1-carbonyl)piperidin-1-yl)methyl)piperidin-1-yl)-2-(2,6-dioxopiperidin-3-yl)isoindoline-1,3-dione], the “DTC Dmax (%)” value in assay [1] was determined as 99.16%. For the same compound, the DC50 in assay [1] is 15.1 nM; in assay [2] it was > 10000 nM; in assay [3], 5.3 nM; in assay [4], 77.2 nM; in assay [5] it was 3.34 nM. The Dmax was determined as 29.1% in assay [2], 97.3% in assay [3], 91% in assay [4] and 89.2% in assay [5].

Regarding `COc1cc(N2CCC(N3CCN(C(=O)CCN4CCC(c5ccc(C6CCC(=O)NC6=O)cc5)CC4)CC3)CC2)ccc1Nc1ncc(Cl)c(Nc2ccccc2N(C)S(C)(=O)=O)n1` (stereo not shown) [Example 123, N-(2-((5-chloro-2-((4-(4-(4-(3-(4-(4-(2,6-dioxopiperidin-3-yl)phenyl)piperidin-1-yl)propanoyl)piperazin-1-yl)piperidin-1-yl)-2-methoxyphenyl)amino)pyrimidin-4-yl)amino)phenyl)-N-methylmethanesulfonamide], in assay [1], the “DTC Dmax (%)” value worked out at 83.94%. Also, the DC50 was 273 nM in assay [1]; > 10000 nM in assay [2]; 12.4 nM in assay [3]; > 10000 nM in assay [4]; 15.9 nM in assay [5]. Also, the Dmax in assay [2] was determined as 21.6%; in assay [3], 79.7%; in assay [4] it was 21.2%; in assay [5], 88.8%.

For the compound `COc1cc(N2CCC(N3CCN(C(=O)CCCCN4CCN(c5ccc6c(c5)C(=O)N(C5CCC(=O)NC5=O)C6=O)CC4)CC3)CC2)ccc1Nc1ncc(Cl)c(Nc2ccccc2N(C)S(C)(=O)=O)n1` (stereo not shown) [Example 128, N-(2-((5-chloro-2-((4-(4-(4-(5-(4-(2-(2,6-dioxopiperidin-3-yl)-1,3-dioxoisoindolin-5-yl)piperazin-1-yl)pentanoyl)piperazin-1-yl)piperidin-1-yl)-2-methoxyphenyl)amino)pyrimidin-4-yl)amino)phenyl)-N-methylmethanesulfonamide], the “DTC Dmax (%)” value in assay [1] worked out at 99.67%. Further, the DC50 in assay [1] was 53.7 nM; in assay [2], > 10000 nM; in assay [3], 11.5 nM; in assay [4] it was 168 nM; in assay [5], 3.2 nM. The Dmax in assay [2] is 15.3%; in assay [3], 85%; in assay [4] it was 86.2%; in assay [5] it was 84%.

The record behind these values is patent US20230265116A1, “DEGRADATION OF (EGFR) BY CONJUGATION OF EGFR INHIBITORS WITH E3 LIGASE LIGAND AND METHODS OF USE” (BEIGENE, LTD., priority 2020, published 2023).
